Consider 23 compounds from US4376770A, “Cephalosporin analogs for oral use” (Shionogi & Co., Ltd., priority 1980, dated 1983).

Where two headings read alike, the source gives them in different places.

One data set relates to Escherichia coli EC-14. Kind of data set: Protection test in mice challenged intraperitoneally with Escherichia coli EC-14. Format: in vivo. Conditions: for ED50: Escherichia coli, 168 h. The procedure: To each group consisting of 5 to 10 mice is challenged 2 to 3×10^5 Escherichia coli EC-14 in 5% mucin intraperitoneally. After 1 hour and 5 hours, a suspension of the ester (1) in the foregoing experiment in 5% acacia solution is administered enterally using a tube into stomach. From the survival rate after 7 days, ED50 of the drug is calculated, and the value in mg/kg is interpreted as the corresponding carboxylic acid.
For using as control, it is necessary to use the effect of the corresponding carboxylic acid. […] Then instead, the ED50 value of the corresponding carboxylic acid (2) on subcutaneous injection is assayed and this is used to evaluate the enteral absorption of the ester (1).
The control value of ED50 for the carboxylic acid (2) is estimated as follows: To each group consisting of 5 to 10 mice challenged by Escherichia coli EC-14 intraperitoneally as in the case of oral experiment above is injected a solution of the carboxylic acid (2) in 0.7% aqueous sodium hydrogen carbonate subcutaneously after 1 and 5 hours after the challenge. The ED50 value is calculated from the survival rate from 7 days and expressed in mg/kg value.

The conditions of data set [1]: prior-art compound, statement in words; cited from earlier work.
For data set [2] the following is noted: prior-art compound, statement in words; cited from earlier work. This is another data set of the same source.
The mark [3] stands for this setting: EC14, po, p.o. 1 and 5 hours after challenge, survival after 7 days, value interpreted as the corresponding carboxylic acid, read-out: ED50 of Ester (1) p.o.
Setting [4] is: EC14, sc, subcutaneous in 0.7% aqueous sodium hydrogen carbonate 1 and 5 hours after challenge, survival 7 days, control for ester, read-out: ED50 of Acid (2) subc.
Where [5] appears, read: subcutaneous in 0.7% aqueous sodium hydrogen carbonate 1 and 5 hours after challenge, survival 7 days, control for ester, 10080 min.
The mark [6] stands for this setting: subcutaneous in 0.7% aqueous sodium hydrogen carbonate 1 and 5 hours after challenge, survival 7 days, control for ester.
[7] abbreviates: p.o. 1 and 5 hours after challenge, survival after 7 days, value interpreted as the corresponding carboxylic acid, 10080 min.

Consider `CCOC(=O)OC(C)OC(=O)C1=C(CSc2nnnn2C)CO[C@H]2N1C(=O)[C@]2(NC(=O)C(C#N)CC)OC` (single isomer, unassigned) [compound 5], for which the ED50 with Escherichia coli EC-14 (setting [3]) came out at 2.22 mg/kg.
On to `CCCC(C#N)C(=O)N[C@]1(OC)C(=O)N2C(C(=O)O)=C(CSc3nnnn3C)CO[C@@H]21` (some centres unmarked) [3 (Acid (2))], for which the ED50 with Escherichia coli EC-14 (setting [4]) is 0.6 mg/kg.
For the compound `CCC(C#N)C(=O)N[C@]1(OC)C(=O)N2C(C(=O)O)=C(CSc3nnnn3C)CO[C@@H]21` (some centres unmarked) [6 (Acid (2))], in the data set on Escherichia coli EC-14 (setting [5]), the “ED50 of Acid (2) subc.” value was found to be 0.45 mg/kg.
As to `CCCC(C#N)C(=O)N[C@]1(OC)C(=O)N2C(C(=O)O)=C(CSc3nnnn3C)CO[C@@H]21` (some centres unmarked) [8 (Acid (2))], the “ED50 of Acid (2) subc.” value with Escherichia coli EC-14 (setting [6]) stood at 0.60 mg/kg.
As to `CCCC(C#N)C(=O)N[C@]1(OC)C(=O)N2C(C(=O)O)=C(CSc3nnnn3C)CO[C@@H]21` (some centres unmarked) [7 (Acid (2))], the “ED50 of Acid (2) subc.” value in the data set on Escherichia coli EC-14 (setting [6]) stood at 0.60 mg/kg.
Turning to “7β-(2-cyanopropionamido)-7α-methoxy-3-(1-methyl-5-tetrazolyl)thiomethyl-1-dethia-1-oxa-3-cephem-4-carboxylic acid pivaloyloxymethyl ester [No. 1]”, in the data set on Escherichia coli EC-14 (p.o. 1 and 5 hours after challenge, survival after 7 days, value interpreted as the corresponding carboxylic acid), the “ED50 of Ester (1) p.o.” value was determined as 1.39 mg/kg.
As for `CCCC(C#N)C(=O)N[C@]1(OC)C(=O)N2C(C(=O)OCOC(=O)C(C)(C)C)=C(CSc3nnnn3C)CO[C@@H]21` (some centres unmarked) [compound 3], in the data set with Escherichia coli EC-14 (setting [3]), the ED50 came out at 5.32 mg/kg.
In the case of `CCCC(C#N)C(=O)N[C@]1(OC)C(=O)N2C(C(=O)OC(C)OC(=O)OCC)=C(CSc3nnnn3C)CO[C@@H]21` (single isomer, unassigned) [compound 8], the “ED50 of Ester (1) p.o.” value with Escherichia coli EC-14 (setting [7]) worked out at 2.82 mg/kg.
Turning to `CO[C@@]1(NC(=O)C(C)C#N)C(=O)N2C(C(=O)O)=C(CSc3nnnn3C)CO[C@@H]21` (some centres unmarked) [1 (Acid (2))], the ED50 with Escherichia coli EC-14 (setting [4]) was 1.68 mg/kg.
For the compound `CCOC(=O)OC(C)OC(=O)C1=C(CSc2nncs2)CO[C@H]2N1C(=O)[C@]2(NC(=O)C(C#N)CC)OC` (some centres unmarked) [compound 10], the ED50 in the data set on Escherichia coli EC-14 (setting [3]) came to 3.23 mg/kg.
Turning to `CC(=O)OCC1=C(C(=O)O)N2C(=O)[C@@H](NC(=O)CC#N)[C@H]2OC1` [7β-Cyanoacetamido-1-dethia-1-oxacephalosporanic acid], in data set [1], the antibacterial activity entry is “weak antibacterial”.
On to `CCC(C#N)C(=O)N[C@]1(OC)C(=O)N2C(C(=O)OCOC(=O)C(C)(C)C)=C(CSc3nnc(C)s3)CO[C@@H]21` (some centres unmarked) [compound 11], for which the ED50 in the data set on Escherichia coli EC-14 (setting [3]) was 3.7 mg/kg.
Consider `CCC(C#N)C(=O)N[C@]1(OC)C(=O)N2C(C(=O)O)=C(CSc3nnnn3C)CO[C@@H]21` (some centres unmarked) [5 (Acid (2))], for which the “ED50 of Acid (2) subc.” value in the data set on Escherichia coli EC-14 (setting [5]) was 0.45 mg/kg.
In the case of `CCC(C#N)C(=O)N[C@]1(OC)C(=O)N2C(C(=O)OCOC(=O)C(C)(C)C)=C(CSc3nncs3)CO[C@@H]21` (some centres unmarked) [No. 9], the ED50 in the data set with Escherichia coli EC-14 (setting [3]) amounted to 6.5 mg/kg.
With `CCCCC(C#N)C(=O)N[C@]1(OC)C(=O)N2C(C(=O)O)=C(CSc3nnnn3C)CO[C@@H]21` (some centres unmarked) [4 (Acid (2))], the ED50 with Escherichia coli EC-14 (setting [4]) is 3.18 mg/kg.
As to `CCCC(C#N)C(=O)N[C@]1(OC)C(=O)N2C(C(=O)OC(C)OC(=O)OCC)=C(CSc3nnnn3C)CO[C@@H]21` (single isomer, unassigned) [compound 7], the ED50 with Escherichia coli EC-14 (setting [3]) was found to be 4.7 mg/kg.
As to `CCC(C#N)C(=O)N[C@]1(OC)C(=O)N2C(C(=O)O)=C(CSc3nnc(C)s3)CO[C@@H]21` (some centres unmarked) [11 (Acid (2))], the ED50 in the data set on Escherichia coli EC-14 (setting [4]) stood at 0.87 mg/kg.
The same measure, in the same setting: under `CCC(C#N)C(=O)N[C@]1(OC)C(=O)N2C(C(=O)O)=C(CSc3nncs3)CO[C@@H]21` (some centres unmarked) [9 (Acid (2))] stands 0.77 mg/kg.
Turning to `CCOC(=O)OC(C)OC(=O)C1=C(CSc2nnnn2C)CO[C@H]2N1C(=O)[C@]2(NC(=O)C(C#N)CC)OC` (single isomer, unassigned) [No. 6, 7β-(2-cyano-n-butyryl)amino-7α-methoxy-3-(1-methyl-5-tetrazolyl)thiomethyl-1-dethia-1-oxa-3-cephem-4-carboxylic acid 1-(ethoxycarbonyloxy)ethyl ester], the “ED50 of Ester (1) p.o.” value in the data set on Escherichia coli EC-14 (setting [7]) was determined as 2.35 mg/kg.
For `CC(=O)OCC1=C(C(=O)OCOC(=O)C(C)(C)C)N2C(=O)[C@@H](NC(=O)CC#N)[C@H]2SC1` [7β-Cyanoacetamidocephalosporanic acid pivaloyloxymethyl ester], the oral absorption entry in data set [2] was “does not show oral absorption sufficient as clinical drugs”.
`CCC(C#N)C(=O)N[C@]1(OC)C(=O)N2C(C(=O)O)=C(CSc3nnnn3C)CO[C@@H]21` (some centres unmarked) [2 (Acid (2))]: in the data set on Escherichia coli EC-14 (setting [4]), the ED50 is 0.47 mg/kg.
Consider `CCC(C#N)C(=O)N[C@]1(OC)C(=O)N2C(C(=O)O)=C(CSc3nncs3)CO[C@@H]21` (some centres unmarked) [10 (Acid (2))], for which the “ED50 of Acid (2) subc.” value with Escherichia coli EC-14 (setting [6]) came to 0.77 mg/kg.
In the case of `CCCCC(C#N)C(=O)N[C@]1(OC)C(=O)N2C(C(=O)OCOC(=O)C(C)(C)C)=C(CSc3nnnn3C)CO[C@@H]21` (some centres unmarked) [compound 4], in the data set on Escherichia coli EC-14 (setting [3]), the ED50 came to 29.8 mg/kg.
